According to patent US7381537B2, “Use of inhibitors of glutaminyl cyclases for treatment and prevention of disease” (Probiodrug AG, priority 2003, dated 2008):
“Also recorded” adds a separate entry of the source. Ends that are not written are not given here.

How the values were obtained:
[1] = system: Glutaminyl cyclase present in the homogenate of porcine pituitary; assay: Formation of [pGlu^3]Aβ3-11a by QC in porcine pituitary homogenate, MALDI-TOF; assay type: biochemical; conditions: 2 mM 1,10-phenanthroline
Procedure: (§1) Matrix-assisted laser desorption/ionization mass spectrometry was carried out using the Hewlett-Packard G2025 LD-TOF System with a linear time of flight analyzer. […] Samples (5 μl) were mixed with equal volumes of the matrix solution. For matrix solution we used DHAP/DAHC, prepared by solving 30 mg 2′,6′-dihydroxyacetophenone (Aldrich) and 44 mg diammonium hydrogen citrate (Fluka) in 1 ml acetonitrile/0.1% TFA in water (1/1, v/v). A small volume (=1 μl) of the matrix-analyte-mixture was transferred to a probe tip and immediately evaporated in a vacuum chamber (Hewlett-Packard G2024A sample prep accessory) to ensure rapid and homogeneous sample crystallization.
In case of Aβ3-21a, the assays contained 1% DMSO. At different times, samples were removed from the assay tube, peptides extracted using ZipTips (Millipore) according to the manufacturer's recommendations, mixed with matrix solution (1:1 v/v) and subsequently the mass spectra recorded.

[2] = system: DP IV and QC; assay: Consecutive catalysis of DP IV and QC, crude porcine pituitary homogenate with added DPIV, MALDI-TOF; assay type: biochemical
Procedure: as §1

[3] = system: mammalian QC; conditions: Busby et al. 1987; cited from earlier work
[4] = target: T1, QC (Homo sapiens, UniProt Q16769); assay: Inhibition and inactivation of human QC by chelators; assay type: biochemical; set-up: The cDNA of the mature QC starting with codon 38 was fused in frame with the plasmid encoded 6×histidine tag; 6xHis; made in house; host or cells: Pichia pastoris X33 (pPICZαB); also E. coli M15 (pQE-31)
[5] = Solubility of substrates in aqueous solution
[6] = target: T1, QC; assay: Reactivation of inactivated human QC with metal ions; assay type: biochemical; set-up: The cDNA of the mature QC starting with codon 38 was fused in frame with the plasmid encoded 6×histidine tag; 6xHis; made in house; host or cells: Pichia pastoris X33 (pPICZαB); also E. coli M15 (pQE-31); conditions: 0.5 mM metal ion in presence of 0.5 mM EDTA
Procedure: Subsequently, the enzyme was subjected to dialysis against 50 mM Bis-Tris, pH 6.8, containing 1.0 mM EDTA. Reactivation of the enzymes was achieved by incubation of the inactivated enzyme sample with metal ions at a concentration of 0.5 mM, in presence of 0.5 mM EDTA in order to avoid an unspecific reactivation by traces of metal ions present in buffer solutions. Controls are given by enzyme samples that were not inactivated, but also dialyzed against EDTA solution as the inactivated enzyme (+EDTA) and enzyme samples that were dialyzed against buffer solutions without added EDTA (−EDTA).

T1 sequence (Q16769 29-361): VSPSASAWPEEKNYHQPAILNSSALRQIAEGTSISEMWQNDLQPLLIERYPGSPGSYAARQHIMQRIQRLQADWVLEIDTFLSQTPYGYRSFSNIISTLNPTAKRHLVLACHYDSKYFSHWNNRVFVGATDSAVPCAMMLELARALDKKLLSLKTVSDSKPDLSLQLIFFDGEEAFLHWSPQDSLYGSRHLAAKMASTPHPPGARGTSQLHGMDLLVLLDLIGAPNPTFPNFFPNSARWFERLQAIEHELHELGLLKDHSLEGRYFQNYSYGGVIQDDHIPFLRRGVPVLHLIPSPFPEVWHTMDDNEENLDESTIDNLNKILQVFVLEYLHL

c1cnc2c(c1)ccc1cccnc12 [1,10-phenanthroline]
inhibition of formation of [pGlu^3]Aβ3-11a from [Gln^3]Aβ3-11a [1]: inhibited; also recorded: inhibition | [pGlu^3]Aβ3-11a formation from [Gln^3]Aβ1-11a in presence of catalytically active DP IV and QC [2]: not formed; also recorded: inhibition | inhibition of a mammalian QC [3]: Inhibition | inhibition of human QC catalyzed substrate cyclization ([4]; competitive and time-dependent for the chelators): inhibited; also recorded: reduced enzymatic activity | inactivation of human QC after extensive dialysis ([4]; dialysis against 5 mM): almost completely inactivated

QFRHDSGYE-NH2 [[Gln^3]Aβ3-11a]
solubility in aqueous solution [5]: better

O=S(=O)([O-])[O-].[Zn+2] [ZnSO4]
restoration of QC activity after inactivation [6]: Near-total restoration
